Data published in patent US20240190880A1 (THE REGENTS OF THE UNIVERSITY OF MICHIGAN, priority 2021, published 2024).

Each molecule was assayed against T1, ER (Homo sapiens, UniProt P03372) (assay: ER degradation activity, in-cell western blot analysis in T47D cells). Conditions: compounds 16 hours, Table A does not say whether T47D or MCF7, read-out: Potency (DC50).
T1 construct: host or cells: T47D and MCF7 human breast cancer cells
T1 sequence (P03372 1-595): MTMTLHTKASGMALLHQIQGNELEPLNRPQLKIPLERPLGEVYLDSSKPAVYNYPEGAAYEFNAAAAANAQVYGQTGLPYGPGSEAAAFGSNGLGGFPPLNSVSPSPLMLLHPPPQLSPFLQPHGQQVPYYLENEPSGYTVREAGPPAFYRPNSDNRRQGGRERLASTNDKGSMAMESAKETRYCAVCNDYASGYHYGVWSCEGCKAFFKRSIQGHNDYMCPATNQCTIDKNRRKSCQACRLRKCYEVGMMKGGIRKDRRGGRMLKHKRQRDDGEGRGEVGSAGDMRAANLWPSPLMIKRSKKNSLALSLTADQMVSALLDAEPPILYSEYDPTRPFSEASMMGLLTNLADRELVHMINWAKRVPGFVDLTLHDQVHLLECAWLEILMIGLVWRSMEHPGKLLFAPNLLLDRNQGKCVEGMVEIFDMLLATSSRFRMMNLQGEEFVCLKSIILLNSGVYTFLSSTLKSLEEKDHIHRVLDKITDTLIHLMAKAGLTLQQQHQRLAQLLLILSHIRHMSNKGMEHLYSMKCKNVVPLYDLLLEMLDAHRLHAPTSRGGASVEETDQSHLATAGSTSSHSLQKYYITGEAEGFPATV
Type: cell-based
In short: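 In-cell western, T47D; compounds 16 h, 0.5% DMSO final; anti-rabbit-680/anti-mouse-800 secondaries, 1 h RT, dark; read on CLX imager. ER % vs untreated/DMSO wells (100%).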

Q: Which DC50 does the source give for `O=C1CCC(N2C(=O)c3cc4c(cc3C2=O)CN(CC(=O)N2CCC3(CC2)CCN(c2ccc([C@@H]5c6ccc7[nH]ncc7c6CC[C@@H]5c5ccccc5)cc2)CC3)C4)C(=O)N1` (stereo partly drawn) [E 423, 2-(2,6-dioxopiperidin-3-yl)-6-(2-oxo-2-(9-(4-((6R,7S)-7-phenyl-6,7,8,9-tetrahydro-3H-benzo[e]indazol-6-yl)phenyl)-3,9-diazaspiro[5.5]undecan-3-yl)ethyl)-6,7-dihydropyrrolo[3,4-f]isoindole-1,3(2H,5H)-dione] here?
A: The DC50 was 0.01 to 0.1 µM.

Q: How did the DC50 turn out when `C[C@@H]1Cc2c(ccc3[nH]ncc23)[C@@H](c2c(F)cc(NC3CN(C(=O)[C@H]4CC[C@@H](N5Cc6cc7c(cc6C5)C(=O)N(C5CCC(=O)NC5=O)C7=O)CC4)C3)cc2F)N1CC(F)F` (stereo partly drawn) [E 424] was run?
A: Its DC50 is 0.01 to 0.1 µM.

Q: For `C[C@@H]1Cc2c(ccc3[nH]ncc23)[C@@H](c2c(F)cc(NC3CN(C(=O)[C@H]4CC[C@H](N5Cc6cc7c(cc6C5)C(=O)N(C5CCC(=O)NC5=O)C7=O)CC4)C3)cc2F)N1CC(F)F` (stereo partly drawn) [E 425], which DC50 is on record?
A: The DC50 was less than 0.01 µM.

Q: `O=C1CCC(N2C(=O)c3cc4c(cc3C2=O)CN(CC(=O)N2CCC3(CC2)CCN(c2ccc([C@H]5c6ccc(O)cc6CC[C@H]5c5ccccc5)cc2)CC3)C4)C(=O)N1` (stereo partly drawn) [E 437, 2-(2,6-dioxopiperidin-3-yl)-6-(2-(9-(4-((1S,2R)-6-hydroxy-2-phenyl-1,2,3,4-tetrahydronaphthalen-1-yl)phenyl)-3,9-diazaspiro[5.5]undecan-3-yl)-2-oxoethyl)-6,7-dihydropyrrolo[3,4-f]isoindole-1,3(2H,5H)-dione] was tested. Which DC50 did it give?
A: The DC50 was greater than 0.1 µM.

Q: `O=C1CCC(N2C(=O)c3cc4c(cc3C2=O)CN(CC(=O)N2CC3(CCN(c5ccc([C@H]6c7ccc(O)cc7CC[C@H]6c6ccccc6)cc5)CC3)C2)C4)C(=O)N1` (stereo partly drawn) [E 438, 2-(2,6-dioxopiperidin-3-yl)-6-(2-(7-(4-((1S,2R)-6-hydroxy-2-phenyl-1,2,3,4-tetrahydronaphthalen-1-yl)phenyl)-2,7-diazaspiro[3.5]nonan-2-yl)-2-oxoethyl)-6,7-dihydropyrrolo[3,4-f]isoindole-1,3(2H,5H)-dione] was tested. Which DC50 did it give?
A: Its DC50 is greater than 0.1 µM.

Q: Which DC50 does the source give for `COc1c2c(cc3c1CN(C1CCC(=O)NC1=O)C3=O)CN(CC(=O)N1CC3(CCN(c4cc(F)c([C@@H]5c6ccc7[nH]ncc7c6C[C@@H](C)N5CC(F)F)c(F)c4)CC3)C1)C2` (stereo partly drawn) [E 441] here?
A: Its DC50 is less than 0.01 µM.

Q: With `COc1c2c(cc3c1CN(C1CCC(=O)NC1=O)C3=O)CN(CC(=O)N1CCC3(CC1)CCN(c1cc(F)c([C@@H]4c5[nH]c6ccccc6c5C[C@@H](C)N4CC(F)F)c(F)c1)CC3)C2` (stereo partly drawn) [E 444, 3-(6-(2-(9-(4-((1R,3R)-2-(2,2-difluoroethyl)-3-methyl-2,3,4,9-tetrahydro-1H-pyrido[3,4-b]indol-1-yl)-3,5-difluorophenyl)-3,9-diazaspiro[5.5]undecan-3-yl)-2-oxoethyl)-4-methoxy-1-oxo-3,5,6,7-tetrahydropyrrolo[3,4-f]isoindol-2(1H)-yl)piperidine-2,6-dione] as the molecule, how does the DC50 read?
A: The DC50 was less than 0.01 µM.

Q: How did the DC50 turn out when `C[C@@H]1Cc2cc(O)ccc2[C@@H](c2c(F)cc(C3=CCC4(CC3)CCN(C(=O)CN3Cc5cc6c(cc5C3)C(=O)N(C3CCC(=O)NC3=O)C6=O)CC4)cc2F)N1CC(F)F` (stereo partly drawn) [E 446, 6-(2-(9-(4-((1S,3R)-2-(2,2-difluoroethyl)-6-hydroxy-3-methyl-1,2,3,4-tetrahydroisoquinolin-1-yl)-3,5-difluorophenyl)-3-azaspiro[5.5]undec-8-en-3-yl)-2-oxoethyl)-2-(2,6-dioxopiperidin-3-yl)-6,7-dihydropyrrolo[3,4-f]isoindole-1,3(2H,5H)-dione tetrahydroisoquinolin] was run?
A: The DC50 was greater than 0.1 µM.

Q: For `C[C@@H]1Cc2cc(O)ccc2[C@@H](c2c(F)cc(C3CCC4(CC3)CCN(C(=O)CN3Cc5cc6c(cc5C3)C(=O)N(C3CCC(=O)NC3=O)C6=O)CC4)cc2F)N1CC(F)F` (stereo partly drawn) [E 447, 6-(2-(9-(4-((1S,3R)-2-(2,2-difluoroethyl)-6-hydroxy-3-methyl-1,2,3,4-tetrahydroisoquinolin-1-yl)-3,5-difluorophenyl)-3-azaspiro[5.5]undecan-3-yl)-2-oxoethyl)-2-(2,6-dioxopiperidin-3-yl)-6,7-dihydropyrrolo[3,4-f]isoindole-1,3(2H,5H)-dione], which DC50 is on record?
A: Its DC50 is greater than 0.1 µM.

Q: With `C[C@@H]1Cc2cc(O)ccc2[C@@H](c2ccc(C3=CCC4(CC3)CCN(C(=O)CN3Cc5cc6c(cc5C3)C(=O)N(C3CCC(=O)NC3=O)C6=O)CC4)cc2)N1CC(F)F` (stereo partly drawn) [E 448, 6-(2-(9-(4-((1R,3R)-2-(2,2-difluoroethyl)-6-hydroxy-3-methyl-1,2,3,4-tetrahydroisoquinolin-1-yl)phenyl)-3-azaspiro[5.5]undec-8-en-3-yl)-2-oxoethyl)-2-(2,6-dioxopiperidin-3-yl)-6,7-dihydropyrrolo[3,4-f]isoindole-1,3(2H,5H)-dione] as the molecule, how does the DC50 read?
A: The DC50 was greater than 0.1 µM.

Q: How did the DC50 turn out when `C[C@@H]1Cc2cc(O)ccc2[C@H](c2ccc(C3=CCC4(CC3)CCN(C(=O)CN3Cc5cc6c(cc5C3)C(=O)N(C3CCC(=O)NC3=O)C6=O)CC4)cc2)N1CC(F)F` (stereo partly drawn) [E 449, 6-(2-(9-(4-((1S,3R)-2-(2,2-difluoroethyl)-6-hydroxy-3-methyl-1,2,3,4-tetrahydroisoquinolin-1-yl)phenyl)-3-azaspiro[5.5]undec-8-en-3-yl)-2-oxoethyl)-2-(2,6-dioxopiperidin-3-yl)-6,7-dihydropyrrolo[3,4-f]isoindole-1,3(2H,5H)-dione] was run?
A: Its DC50 is greater than 0.1 µM.

Q: For `C[C@@H]1Cc2cc(O)ccc2C(c2ccc(C3CCC4(CC3)CCN(C(=O)CN3Cc5cc6c(cc5C3)C(=O)N(C3CCC(=O)NC3=O)C6=O)CC4)cc2)N1CC(F)F` (stereo partly drawn) [E 450, 6-(2-(9-(4-((3R)-2-(2,2-difluoroethyl)-6-hydroxy-3-methyl-1,2,3,4-tetrahydroisoquinolin-1-yl)phenyl)-3-azaspiro[5.5]undecan-3-yl)-2-oxoethyl)-2-(2,6-dioxopiperidin-3-yl)-6,7-dihydropyrrolo[3,4-f]isoindole-1,3(2H,5H)-dione], which DC50 is on record?
A: Its DC50 is 0.01 to 0.1 µM.

Q: How did the DC50 turn out when `C[C@@H]1Cc2cc(O)ccc2[C@@H](c2c(F)cc(NC3CC4(CCN(C(=O)CN5Cc6cc7c(cc6C5)C(=O)N(C5CCC(=O)NC5=O)C7=O)CC4)C3)cc2F)N1CC(F)F` (stereo partly drawn) [E 451, 6-(2-(2-((4-((1S,3R)-2-(2,2-difluoroethyl)-6-hydroxy-3-methyl-1,2,3,4-tetrahydroisoquinolin-1-yl)-3,5-difluorophenyl)amino)-7-azaspiro[3.5]nonan-7-yl)-2-oxoethyl)-2-(2,6-dioxopiperidin-3-yl)-6,7-dihydropyrrolo[3,4-f]isoindole-1,3(2H,5H)-dione] was run?
A: Its DC50 is 0.01 to 0.1 µM.

Q: How did the DC50 turn out when `C[C@@H]1Cc2cc(O)ccc2[C@@H](c2c(F)cc(N(C)C3CC4(CCN(C(=O)CN5Cc6cc7c(cc6C5)C(=O)N(C5CCC(=O)NC5=O)C7=O)CC4)C3)cc2F)N1CC(F)F` (stereo partly drawn) [E 452, 6-(2-(2-((4-((1S,3R)-2-(2,2-difluoroethyl)-6-hydroxy-3-methyl-1,2,3,4-tetrahydroisoquinolin-1-yl)-3,5-difluorophenyl)(methyl)amino)-7-azaspiro[3.5]nonan-7-yl)-2-oxoethyl)-2-(2,6-dioxopiperidin-3-yl)-6,7-dihydropyrrolo[3,4-f]isoindole-1,3(2H,5H)-dione] was run?
A: Its DC50 is 0.01 to 0.1 µM.

Q: With `C[C@@H]1Cc2cc(O)ccc2[C@@H](c2c(F)cc(OCC3CCC4(CC3)CN(C(=O)CN3Cc5cc6c(cc5C3)C(=O)N(C3CCC(=O)NC3=O)C6=O)C4)cc2F)N1CC(F)F` (stereo partly drawn) [E 453, 6-(2-(7-((4-((1S,3R)-2-(2,2-difluoroethyl)-6-hydroxy-3-methyl-1,2,3,4-tetrahydroisoquinolin-1-yl)-3,5-difluorophenoxy)methyl)-2-azaspiro[3.5]nonan-2-yl)-2-oxoethyl)-2-(2,6-dioxopiperidin-3-yl)-6,7-dihydropyrrolo[3,4-f]isoindole-1,3(2H,5H)-dione] as the molecule, how does the DC50 read?
A: The DC50 was less than 0.01 µM.
